The supplement of paper PMC10307832

These cell lines were tested with N[C@@H]1CCCN(c2c(/C=C3\SC(=O)NC3=O)cccc2-c2ccccc2)C1 [AZD1208] + Cc1cc(Nc2cc(N3CCN(C)CC3)nc(Sc3ccc(NC(=O)C4CC4)cc3)n2)n[nH]1 [Tozasertib] (partner 0.1 µM) (assay: relative viability (nuclei count vs DMSO), 5 days (fraction); higher = more cells survive). Details: first compound 0.08 µM.
Method in brief: (§1)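 After 5 days of treatment, lung cancer cells in 1536-well plates were fixed and stained in a single step (final 0.05% Triton X-100, 1% formaldehyde, 1 ug/ml Hoechst) and their nuclei counted on 4× images. Treatment had been applied by pin tool the day after seeding as one drug alone or as a fixed anchor-drug dose with five library-drug doses (not always all listed) in √10 steps. Relative viability is the nuclei count of treated wells divided by that of vehicle wells, and values are medians of duplicate plates.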

| Cell Line | relative viability |
| --- | --- |
| EKVX | 0.444 |
| LC-2-ad | 0.397 |
| NCI-H1944 | 0.242 |
| NCI-H1975 | 0.735 |
| SK-LU-1 | 0.298 |
| ABC-1 | 0.168 |
| NCI-H358 | 0.109 |
| NCI-H661 | 0.351 |
| RERF-LC-KJ | 0.505 |

Same assay, conditions: first compound 0.253 µM

| Cell Line | relative viability |
| --- | --- |
| NCI-H1355 | 0.474 |
| NCI-H322M | 0.492 |
| NCI-H1437 | 0.378 |
| NCI-H1755 | 0.532 |
| NCI-H2085 | 0.858 |
| HCC-15 | 0.306 |
| NCI-H1793 | 0.313 |
| PC-3 [JPC-3] | 0.989 |
| EKVX | 0.462 |
| LC-2-ad | 0.381 |
| NCI-H1944 | 0.225 |
| NCI-H1975 | 0.712 |
| SK-LU-1 | 0.298 |
| ABC-1 | 0.155 |
| NCI-H358 | 0.0897 |
| NCI-H661 | 0.347 |
| RERF-LC-KJ | 0.423 |

Same assay, conditions: first compound 0.8 µM

| Cell Line | relative viability |
| --- | --- |
| NCI-H1355 | 0.407 |
| NCI-H322M | 0.463 |
| NCI-H1437 | 0.335 |
| NCI-H1755 | 0.52 |
| NCI-H2085 | 0.714 |
| HCC-15 | 0.241 |
| NCI-H1793 | 0.314 |
| PC-3 [JPC-3] | 0.906 |
| EKVX | 0.376 |
| LC-2-ad | 0.355 |
| NCI-H1944 | 0.226 |
| NCI-H1975 | 0.736 |
| SK-LU-1 | 0.246 |
| ABC-1 | 0.214 |
| NCI-H358 | 0.104 |
| NCI-H661 | 0.361 |
| RERF-LC-KJ | 0.56 |

Same assay, conditions: first compound 2.53 µM

| Cell Line | relative viability |
| --- | --- |
| NCI-H1355 | 0.389 |
| NCI-H322M | 0.463 |
| NCI-H1437 | 0.353 |
| NCI-H1755 | 0.417 |
| NCI-H2085 | 0.868 |
| HCC-15 | 0.186 |
| NCI-H1793 | 0.296 |
| PC-3 [JPC-3] | 0.886 |
| EKVX | 0.388 |
| LC-2-ad | 0.363 |
| NCI-H1944 | 0.214 |
| NCI-H1975 | 0.829 |
| SK-LU-1 | 0.285 |
| ABC-1 | 0.192 |
| NCI-H358 | 0.101 |
| NCI-H661 | 0.358 |
| RERF-LC-KJ | 0.519 |

Same assay, conditions: first compound 8 µM

| Cell Line | relative viability |
| --- | --- |
| NCI-H1355 | 0.308 |
| NCI-H322M | 0.439 |
| NCI-H1437 | 0.351 |
| NCI-H1755 | 0.358 |
| NCI-H2085 | 0.771 |
| HCC-15 | 0.184 |
| NCI-H1793 | 0.267 |
| PC-3 [JPC-3] | 0.78 |
| EKVX | 0.262 |
| LC-2-ad | 0.318 |
| NCI-H1944 | 0.202 |
| NCI-H1975 | 0.639 |
| SK-LU-1 | 0.22 |
| ABC-1 | 0.192 |
| NCI-H358 | 0.091 |
| NCI-H661 | 0.355 |
| RERF-LC-KJ | 0.384 |

What follows are cell lines tested with CN1CCN(CC1)C2=CC(=C(C=C2)NC3=NC(=C(S3)C(=O)C4=C(C=CC=C4Cl)Cl)N)OC [XMD14-99] + Cc1nc(Nc2ncc(C(=O)Nc3c(C)cccc3Cl)s2)cc(N2CCN(CCO)CC2)n1 [Dasatinib] (partner 0.075 µM) in the same assay as above. Details: first compound 0.08 µM.
Method in brief: as §1

| Cell Line | relative viability |
| --- | --- |
| NCI-H1355 | 0.777 |
| NCI-H322M | 0.275 |
| NCI-H1437 | 0.437 |
| NCI-H1755 | 0.404 |
| NCI-H2085 | 0.267 |
| HCC-15 | 0.601 |
| NCI-H1793 | 0.403 |
| PC-3 [JPC-3] | 0.915 |
| EKVX | 0.497 |
| LC-2-ad | 0.541 |
| NCI-H1944 | 0.193 |
| NCI-H1975 | 0.307 |
| SK-LU-1 | 0.182 |
| ABC-1 | 0.555 |
| NCI-H358 | 0.157 |
| NCI-H661 | 0.976 |
| RERF-LC-KJ | 0.883 |

Same assay, conditions: first compound 0.8 µM

| Cell Line | relative viability |
| --- | --- |
| NCI-H1355 | 0.702 |
| NCI-H322M | 0.252 |
| NCI-H1437 | 0.457 |
| NCI-H1755 | 0.405 |
| NCI-H2085 | 0.261 |
| HCC-15 | 0.65 |
| NCI-H1793 | 0.362 |
| PC-3 [JPC-3] | 0.972 |
| EKVX | 0.561 |
| LC-2-ad | 0.643 |
| NCI-H1944 | 0.239 |
| NCI-H1975 | 0.304 |
| SK-LU-1 | 0.204 |
| ABC-1 | 0.689 |
| NCI-H358 | 0.175 |
| NCI-H661 | 0.86 |
| RERF-LC-KJ | 0.869 |

Same assay, conditions: first compound 2.53 µM

| Cell Line | relative viability |
| --- | --- |
| NCI-H1355 | 0.655 |
| NCI-H322M | 0.257 |
| NCI-H1437 | 0.35 |
| NCI-H1755 | 0.4 |
| NCI-H2085 | 0.273 |
| HCC-15 | 0.548 |
| NCI-H1793 | 0.355 |
| PC-3 [JPC-3] | 0.99 |
| EKVX | 0.5 |
| LC-2-ad | 0.535 |
| NCI-H1944 | 0.222 |
| NCI-H1975 | 0.312 |
| SK-LU-1 | 0.181 |
| ABC-1 | 0.483 |
| NCI-H358 | 0.151 |
| NCI-H661 | 0.828 |
| RERF-LC-KJ | 0.764 |

Same assay, conditions: first compound 8 µM

| Cell Line | relative viability |
| --- | --- |
| NCI-H1355 | 0.476 |
| NCI-H322M | 0.248 |
| NCI-H1437 | 0.234 |
| NCI-H1755 | 0.369 |
| NCI-H2085 | 0.241 |
| HCC-15 | 0.431 |
| NCI-H1793 | 0.334 |
| PC-3 [JPC-3] | 0.907 |
| EKVX | 0.373 |
| LC-2-ad | 0.476 |
| NCI-H1944 | 0.201 |
| NCI-H1975 | 0.248 |
| SK-LU-1 | 0.163 |
| ABC-1 | 0.46 |
| NCI-H358 | 0.141 |
| NCI-H661 | 0.627 |
| RERF-LC-KJ | 0.608 |
